The record followed here is US6620843B2, “Anticancer treatment using triptolide prodrugs” (priority 2001, dated 2003).

Where two headings read alike, the source gives them in different places.

The subject of the data set is HT-29 human colon tumors. On the procedure: Human Tumor Xenograft Study. An HT-29 human colon cancer cell line was purchased from ATCC (Manassas, Va.). Cells were cultured in DMEM (Dulbecco's Modified Eagle's Medium) from GIBIOBRL (Grand Island, N.Y.) with 10% fetal bovine serum (FBS) supplemented with L-glutamine and Penicillin/Streptomycin. The tumor cells were harvested when cultures reached 80-90% confluence. The supernatants were discarded and the cell pellets were suspended to 1×10^8 cells/ml in DMEM medium without FBS. HT-29 cells (5×10^6) were implanted intradermally on the back of each mouse. Tumor size was monitored by measuring the length (L), width (W), and height (H) of each tumor and calculating tumor volume (Vol=½×4/3π×(L/2)×(W/2)×H).
Mice bearing human tumor cell xenografts were treated with PG490-88 IP daily for 5 days per week. The compound was administered as the sodium salt. CPT-11 was administered IV twice per week. 5-FU was given IP daily for 5 days per week. The stock solutions of each therapeutic agent were diluted in 0.9% NaCl for dosing. The agents were given to mice at 100 μl per 10 g of mouse body weight. Mice were dosed for two weeks, and 0.9% NaCl was used as the vehicle control. Tumor volume was monitored, and toxicity of the chemotherapeutic treatment was monitored by weighing the mice every day.

In the case of `CCc1c2c(nc3ccc(OC(=O)N4CCC(N5CCCCC5)CC4)cc13)-c1cc3c(c(=O)n1C2)COC(=O)[C@]3(O)CC` [CPT-11, irinotecan, reference compound], where the note is “CPT-11 22 mg/kg”, the “tumor growth inhibition (in words)” value is reported as “slight to moderate”.
In the case of `O=c1[nH]cc(F)c(=O)[nH]1` [5-FU, 5-fluorouracil, reference compound], the “tumor growth inhibition (in words)” value (5-FU 20 mg/kg) is reported as “only slightly inhibited tumor growth”. The “percent increase in mean tumor volume at day 16” value (5-FU 20 mg/kg IP daily 5 days per week, day 16, control group 721%) is 470%. Further, where the note is “mouse, in vivo”, the “toxicity in tumor-bearing mice” value is “showed signs of toxicity”.
As to `CC(C)[C@]12O[C@H]1[C@@H]1O[C@]13[C@]1(O[C@H]1C[C@H]1C4=C(CC[C@@]13C)C(=O)OC4)[C@@H]2OC(=O)CCC(=O)O` [PG490-88, triptolide 14-succinate], the “tumor growth inhibition (in words)” value (0.125 mg/kg, by day 16) was “slightly inhibited”; the “tumor growth inhibition (in words)” value (0.25 mg/kg, by day 16) is “moderate inhibition”; the “tumor growth inhibition (in words)” value (0.75 mg/kg, by day 16) is “strongly inhibited tumor growth and induced tumor regression”. For the same compound, the “tumor growth inhibition, dose dependence (in words)” value (0.125-0.75 mg/kg) is reported as “inhibited HT-29 tumor growth in a dose-dependent manner”. Besides, the “percent increase in mean tumor volume at day 16” value is, setting by setting: (PG490-88 0.125 mg/kg IP daily 5 days per week, day 16 vs initial value, vehicle control 721%) 462%; (PG490-88 0.25 mg/kg IP daily 5 days per week, day 16 vs initial value, vehicle control 721%) 131%. Besides, the “percent decrease in mean tumor volume at day 16 from the initial value” (PG490-88 0.75 mg/kg IP daily 5 days per week, day 16) stood at 54%. Besides, the “mean tumor volume at day 9 (in words)” value (PG490-88 0.75 mg/kg, day 9) is listed as “decreased from the day 5 value to approximately the initial value”.
